Laboratory results: PubChem BioAssay (NCI)
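Five concentrations, 48 hours, 96-well plates. Abbreviation: GI50, concentration required for 50% inhibition of growth. TGI denotes the concentration required for complete inhibition of growth.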

Tests used:
Assay in all cases: NCI anticancer screen, dose series, 48 h
[1] = test system: BT-549 breast
[2] = test system: SF-539 CNS
[3] = test system: SNB-75 CNS
[4] = test system: SF-268 CNS
[5] = test system: OVCAR-4 ovarian
[6] = test system: HT29 colon
[7] = test system: SK-MEL-28 melanoma
[8] = test system: COLO 205 colon
[9] = test system: HL-60(TB) leukemia
[10] = test system: MDA-MB-231 breast
[11] = test system: RPMI-8226 leukemia
[12] = test system: CCRF-CEM leukemia
[13] = test system: OVCAR-3 ovarian
[14] = test system: CAKI-1 renal
[15] = test system: SR leukemia
[16] = test system: SK-MEL-5 melanoma
[17] = test system: 786-0 renal
[18] = test system: K-562 leukemia
[19] = test system: M14 melanoma
[20] = test system: A498 renal
[21] = test system: OVCAR-5 ovarian
[22] = test system: UO-31 renal
[23] = test system: NCI-H522 lung
[24] = test system: MALME-3M melanoma
[25] = test system: SW-620 colon
[26] = test system: IGROV1 ovarian
[27] = test system: ACHN renal
[28] = test system: OVCAR-8 ovarian
[29] = test system: HCT-15 colon
[30] = test system: NCI-H226 lung
[31] = test system: HS 578T breast
[32] = test system: NCI-H23 lung
[33] = test system: PC-3 prostate
[34] = test system: TK-10 renal
[35] = test system: NCI/ADR-RES ovarian
[36] = test system: SK-MEL-2 melanoma
[37] = test system: HCT-116 colon
[38] = test system: KM12 colon
[39] = test system: MOLT-4 leukemia
[40] = test system: HCC-2998 colon
[41] = test system: LOX IMVI melanoma
[42] = test system: A549 NSCLC
[43] = test system: MCF7 breast
[44] = test system: DU-145 prostate
[45] = test system: NCI-H460 lung
[46] = test system: HOP-62 NSCLC
[47] = test system: SK-OV-3 ovarian
[48] = test system: UACC-257 melanoma
[49] = test system: RXF 393 renal
[50] = test system: EKVX NSCLC
[51] = test system: T-47D breast
[52] = test system: HOP-92 NSCLC
[53] = test system: MDA-MB-435
[54] = test system: SF-295 CNS
[55] = test system: SNB-19 CNS
[56] = test system: SN12C renal
[57] = test system: UACC-62 melanoma
[58] = test system: U251 CNS

`C=C1C(=O)O[C@H]2[C@H]1CC/C(COC(=O)NCCc1cccc(OC)c1)=C\CC[C@@]1(C)O[C@@H]21` was tested, and the GI50 [1] was 1510 nM, the TGI [1] was 3120 nM and the GI50 [2] was 1490 nM. The TGI [2] was 2960 nM, the GI50 [3] was 1470 nM and the TGI [3] was 4710 nM. It also gave a GI50 [4] of 1780 nM, a TGI [4] of 4910 nM and a GI50 [5] of 1780 nM. For the same compound, the TGI [5] was 4370 nM, the GI50 [6] was 1140 nM and the TGI [6] was 2880 nM. For the same compound, the GI50 [7] was 1350 nM, the TGI [7] was 3300 nM and the GI50 [8] was 1550 nM. For the same compound, the TGI [8] was 3280 nM, the GI50 [9] was 1360 nM and the TGI [9] was 4340 nM. The GI50 [10] was 1560 nM, the TGI [10] was 3470 nM and the GI50 [11] was 917 nM. For the same compound, the TGI [11] was 4340 nM, the GI50 [12] was 340 nM and the TGI [12] was 1930 nM. The GI50 [13] was 995 nM, the TGI [13] was 2380 nM and the GI50 [14] was 1190 nM. For the same compound, the TGI [14] was 2520 nM, the GI50 [15] was 511 nM and the TGI [15] was 2860 nM. The GI50 [16] was 1840 nM, the TGI [16] was 3570 nM and the GI50 [17] was 1370 nM. For the same compound, the TGI [17] was 3070 nM, the GI50 [18] was 613 nM and the TGI [18] was 6250 nM. It also gave a GI50 [19] of 1290 nM, a TGI [19] of 2920 nM and a GI50 [20] of 2350 nM. It also gave a TGI [20] of 7760 nM, a GI50 [21] of 2250 nM and a TGI [21] of 6050 nM. It also gave a GI50 [22] of 1390 nM, a TGI [22] of 2860 nM and a GI50 [23] of 1020 nM. It also gave a TGI [23] of 2690 nM, a GI50 [24] of 1840 nM and a TGI [24] of 3610 nM. For the same compound, the GI50 [25] was 502 nM, the TGI [25] was 2010 nM and the GI50 [26] was 1260 nM. It also gave a TGI [26] of 3050 nM, a GI50 [27] of 1120 nM and a TGI [27] of 2580 nM. For the same compound, the GI50 [28] was 2260 nM, the TGI [28] was 8030 nM and the GI50 [29] was 1020 nM. For the same compound, the TGI [29] was 2620 nM, the GI50 [30] was 1570 nM and the TGI [30] was 3600 nM. For the same compound, the GI50 [31] was 3430 nM, the TGI [31] was 21600 nM and the GI50 [32] was 1860 nM. It also gave a TGI [32] of 4330 nM, a GI50 [33] of 2300 nM and a TGI [33] of 5540 nM. The GI50 [34] was 1610 nM, the TGI [34] was 3250 nM and the GI50 [35] was 2950 nM. For the same compound, the TGI [35] was 10800 nM, the GI50 [36] was 1730 nM and the TGI [36] was 3650 nM. The GI50 [37] was 714 nM, the TGI [37] was 2080 nM and the GI50 [38] was 4270 nM. It also gave a TGI [38] of 15600 nM, a GI50 [39] of 2090 nM and a TGI [39] of 5000 nM. It also gave a GI50 [40] of 1680 nM, a TGI [40] of 3290 nM and a GI50 [41] of 1340 nM. For the same compound, the TGI [41] was 2810 nM, the GI50 [42] was 7280 nM and the TGI [42] was 21900 nM. It also gave a GI50 [43] of 494 nM, a TGI [43] of 2100 nM and a GI50 [44] of 892 nM. It also gave a TGI [44] of 2160 nM, a GI50 [45] of 3940 nM and a TGI [45] of 16600 nM. For the same compound, the GI50 [46] was 4390 nM, the TGI [46] was 16600 nM and the GI50 [47] was 13600 nM. For the same compound, the TGI [47] was 27700 nM, the GI50 [48] was 1530 nM and the TGI [48] was 3400 nM. For the same compound, the GI50 [49] was 673 nM, the TGI [49] was 2380 nM and the GI50 [50] was 1780 nM. It also gave a TGI [50] of 4250 nM, a GI50 [51] of 1610 nM and a TGI [51] of 4030 nM. The GI50 [52] was 1840 nM, the TGI [52] was 3960 nM and the GI50 [53] was 1580 nM. It also gave a TGI [53] of 3700 nM, a GI50 [54] of 7260 nM and a TGI [54] of 20400 nM. For the same compound, the GI50 [55] was 1430 nM and the TGI [55] was 3130 nM.

With `Cc1noc(C)c1-c1cnc2c(-c3ccc(C(=O)O)cc3)cn([C@@H](C)c3ccccn3)c2c1` the GI50 [56] was 2990 nM, the TGI [56] was > 100000 nM and the GI50 [1] was 11800 nM. The TGI [1] was > 100000 nM, the GI50 [2] was 842 nM and the TGI [2] was > 100000 nM. The GI50 [3] was 37.6 nM, the TGI [3] was 2470 nM and the GI50 [4] was 9040 nM. For the same compound, the TGI [4] was > 100000 nM, the GI50 [5] was 772 nM and the TGI [5] was > 100000 nM. For the same compound, the GI50 [6] was 386 nM, the TGI [6] was > 100000 nM and the GI50 [7] was 5440 nM. For the same compound, the TGI [7] was > 100000 nM, the GI50 [8] was 413 nM and the TGI [8] was > 100000 nM. For the same compound, the GI50 [9] was 253 nM, the TGI [9] was > 100000 nM and the GI50 [57] was 95.4 nM. For the same compound, the TGI [57] was 20200 nM, the GI50 [10] was 518 nM and the TGI [10] was > 100000 nM. The GI50 [11] was 155 nM, the TGI [11] was > 100000 nM and the GI50 [12] was 2730 nM. For the same compound, the TGI [12] was > 100000 nM, the GI50 [13] was 959 nM and the TGI [13] was 32100 nM. For the same compound, the GI50 [14] was 74.5 nM, the TGI [14] was > 83600 nM and the GI50 [15] was 838 nM. The TGI [15] was > 100000 nM, the GI50 [16] was 644 nM and the TGI [16] was 4070 nM. For the same compound, the GI50 [17] was 2130 nM, the TGI [17] was > 100000 nM and the GI50 [18] was 964 nM. The TGI [18] was > 100000 nM, the GI50 [19] was 629 nM and the TGI [19] was > 100000 nM. It also gave a GI50 [20] of 196 nM, a TGI [20] of 1870 nM and a GI50 [21] of 4220 nM. The TGI [21] was > 100000 nM, the GI50 [22] was 102 nM and the TGI [22] was > 55000 nM. The GI50 [23] was 231 nM, the TGI [23] was > 49700 nM and the GI50 [24] was 635 nM. The TGI [24] was > 100000 nM, the GI50 [25] was 15600 nM and the TGI [25] was > 100000 nM. For the same compound, the GI50 [26] was 607 nM, the TGI [26] was > 100000 nM and the GI50 [27] was 1380 nM. For the same compound, the TGI [27] was > 100000 nM, the GI50 [28] was 2890 nM and the TGI [28] was > 100000 nM. For the same compound, the GI50 [29] was 418 nM, the TGI [29] was > 100000 nM and the GI50 [30] was 5020 nM. The TGI [30] was > 46600 nM, the GI50 [31] was 188 nM and the TGI [31] was > 100000 nM. For the same compound, the GI50 [32] was 3320 nM, the TGI [32] was > 100000 nM and the GI50 [33] was 3280 nM. The TGI [33] was > 100000 nM, the GI50 [34] was 405 nM and the TGI [34] was > 100000 nM. For the same compound, the GI50 [35] was 2280 nM, the TGI [35] was > 100000 nM and the GI50 [36] was 7020 nM. For the same compound, the TGI [36] was > 100000 nM, the GI50 [37] was 1140 nM and the TGI [37] was > 100000 nM. For the same compound, the GI50 [38] was 2730 nM, the TGI [38] was > 100000 nM and the GI50 [39] was 12600 nM. The TGI [39] was > 100000 nM, the GI50 [40] was 966 nM and the TGI [40] was 10900 nM. The GI50 [41] was 315 nM, the TGI [41] was 7730 nM and the GI50 [58] was 3380 nM. For the same compound, the TGI [58] was > 100000 nM, the GI50 [42] was 3250 nM and the TGI [42] was > 100000 nM. The GI50 [43] was 186 nM, the TGI [43] was > 100000 nM and the GI50 [44] was 22600 nM. The TGI [44] was > 100000 nM, the GI50 [45] was 6070 nM and the TGI [45] was > 100000 nM. The GI50 [46] was 555 nM, the TGI [46] was > 100000 nM and the GI50 [47] was 635 nM. For the same compound, the TGI [47] was 32500 nM, the GI50 [48] was 1620 nM and the TGI [48] was > 100000 nM. For the same compound, the GI50 [49] was 2400 nM, the TGI [49] was 34600 nM and the GI50 [50] was 580 nM. For the same compound, the TGI [50] was > 100000 nM, the GI50 [51] was 623 nM and the TGI [51] was > 100000 nM. For the same compound, the GI50 [52] was 212 nM, the TGI [52] was > 100000 nM and the GI50 [53] was 603 nM. For the same compound, the TGI [53] was > 100000 nM, the GI50 [54] was 3710 nM and the TGI [54] was > 100000 nM. For the same compound, the GI50 [55] was 1580 nM and the TGI [55] was > 100000 nM.
